Source: the supplement of paper PMC10331698
± gives the standard deviation of the averaged measurements.

Experiments:
Test in all cases: level (log10 ratio to DMSO vehicle control); higher = higher biomarker level / cell amount than vehicle control
[1] = compound: O=S(=O)(O)C(F)(F)C(F)(F)C(F)(F)C(F)(F)C(F)(F)C(F)(F)C(F)(F)F [Perfluoroheptanesulfonic acid] (in DMSO)
Method: (§1)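 BioMAP Diversity Plus panel of 12 human primary cell co-culture systems (3C, 4H, LPS, SAg, BT, BF4T, BE3C, CASM3C, HDF3CGF, KF3CT, MyoF, Mphg). Compounds were added 1 h before stimulation and left for 24 h (MyoF 48 h; BT 72 h for soluble read-outs or 6 d for IgG). Biomarkers were read by ELISA, cytotoxicity by SRB, PBMC viability and proliferation by Alamar Blue. Each well value was divided by the mean of 8 DMSO control wells on the same plate and log10 transformed; duplicate blinded samples were tested at 4 concentrations.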

[2] = compound: OCC(F)(F)OC(F)(F)C(F)(F)OC(F)(F)C(F)(F)OC(F)(F)CO [1H,1H,11H,11H-Perfluorotetraethylene glycol] (in DMSO)
Method: as §1

[3] = compound: O=C(O)C=C(C(F)(F)F)C(F)(F)F [3,3-Bis(trifluoromethyl)-2-propenoic acid] (in DMSO)
Method: as §1

Octafluoroadipic acid = compound: O=C(O)C(F)(F)C(F)(F)C(F)(F)C(F)(F)C(=O)O [Octafluoroadipic acid] (in DMSO)
Method: as §1

[4] = compound: NS(=O)(=O)C(F)(F)C(F)(F)C(F)(F)C(F)(F)C(F)(F)C(F)(F)C(F)(F)C(F)(F)F [Perfluorooctanesulfonamide] (in DMSO)
Method: as §1

[5] = compound: CCOC(=O)CC(=O)C(F)(F)C(F)(F)F [Ethyl pentafluoropropionyl acetate] (in DMSO)
Method: as §1

Test System	level (log10) ([1]; 1500 nM)	level (log10) ([1]; 4400 nM)	level (log10) ([1]; 13000 nM)	level (log10) ([1]; 40000 nM)	level (log10) ([2]; 6700 nM)	level (log10) ([2]; 20000 nM)	level (log10) ([2]; 60000 nM)	level (log10) ([3]; 6700 nM)	level (log10) ([3]; 20000 nM)	level (log10) ([3]; 60000 nM)	level (log10) (Octafluoroadipic acid; 6700 nM)	level (log10) (Octafluoroadipic acid; 20000 nM)	level (log10) (Octafluoroadipic acid; 60000 nM)	level (log10) ([4]; 6700 nM)	level (log10) ([4]; 20000 nM)	level (log10) ([5]; 6700 nM)	level (log10) ([5]; 20000 nM)	level (log10) ([5]; 60000 nM)
BE3C:CXCL9/MIG	-0.011 ± 0.02	-0.009 ± 0.025	-0.006 ± 0.013	-0.006 ± 0.016	-0.005 ± 0.0042	0.004 ± 0.0071	-0.0355 ± 0.015	-0.007 ± 0.014	-0.007 ± 0.0057	0.005 ± 0.023	0.0105 ± 0.013	0.012	0.0075 ± 0.016	-0.0015 ± 0.0021	0.013 ± 0.013	0.001 ± 0.0099	0.001 ± 0.0028	0.006 ± 0.0028
BE3C:CXCL10/IP-10	0.0075 ± 0.0035	0.0055 ± 0.0078	-0.01 ± 0.024	-0.039 ± 0.016	-0.012 ± 0.0028	-0.0315 ± 0.021	-0.167 ± 0.028	-0.022 ± 0.027	-0.0195 ± 0.026	-0.0295 ± 0.00071	-0.0035 ± 0.0035	-0.002 ± 0.011	0.017 ± 0.023	-0.142 ± 0.0078	-0.414 ± 0.0028	-0.004 ± 0.011	-0.013 ± 0.0028	-0.008 ± 0.0042
BE3C:CXCL11/I-TAC	-0.0095 ± 0.069	0.021 ± 0.038	0.0255 ± 0.011	0.0495 ± 0.025	-0.0135 ± 0.0021	-0.03 ± 0.0028	-0.092 ± 0.028	-0.0375 ± 0.0092	-0.033 ± 0.023	-0.019 ± 0.011	-0.0025 ± 0.0078	0.0085 ± 0.012	0.0085 ± 0.0078	-0.0565 ± 0.013	-0.183 ± 0.06	0.002 ± 0.028	0.002 ± 0.0099	-0.0015 ± 0.0078
BE3C:EGFR	0.019 ± 0.025	-0.008 ± 0.0042	-0.002 ± 0.023	-0.012 ± 0.038	0.0055 ± 0.011	-0.0005 ± 0.0078	-0.034 ± 0.0014	-0.015 ± 0.014	-0.011 ± 0.0085	-0.0015 ± 0.012	-0.012 ± 0.017	-0.0015 ± 0.005	0.0105 ± 0.016	-0.0005 ± 0.00071	-0.044 ± 0.0014	-0.006 ± 0.0099	0.0025 ± 0.005	-0.006 ± 0.023
BE3C:HLA-DR	0.01 ± 0.014	-0.013 ± 0.016	-0.01 ± 0.021	-0.028 ± 0.033	-0.03 ± 0.011	-0.016 ± 0.0014	-0.163 ± 0.013	-0.0175 ± 0.0064	-0.0245 ± 0.011	-0.0355 ± 0.016	0 ± 0.021	0.0045 ± 0.018	0.012 ± 0.0028	-0.0975 ± 0.013	-0.136 ± 0.011	0.014 ± 0.023	-0.006 ± 0.0014	-0.0005 ± 0.005
BE3C:IL-1alpha	0.0275 ± 0.005	0.006	0.001 ± 0.0099	0.039 ± 0.03	-0.001 ± 0.024	-0.0185 ± 0.0035	-0.0065 ± 0.057	0.012 ± 0.02	0.0005 ± 0.0092	0.001 ± 0.023	0.0155 ± 0.0064	0.009 ± 0.023	-0.031 ± 0.0028	-0.005 ± 0.023	-0.066 ± 0.017	0.0125 ± 0.03	-0.011 ± 0.044	0.0285 ± 0.005
BF4T:CCL2/MCP-1	0.009 ± 0.041	0 ± 0.013	-0.092 ± 0.028	0.016 ± 0.014	-0.0295 ± 0.012	-0.119 ± 0.016	-0.227 ± 0.013	0.0005 ± 0.0021	-0.052 ± 0.031	-0.0635 ± 0.0064	0.0145 ± 0.012	-0.011	0.0225 ± 0.057	-0.084 ± 0.0071	-0.0565 ± 0.018	-0.006 ± 0.011	-0.0145 ± 0.00071	-0.0015 ± 0.0078
BF4T:CCL26/Eotaxin-3	0.053 ± 0.05	0.01	-0.0715 ± 0.011	-0.069 ± 0.058	0.0395 ± 0.025	-0.013 ± 0.021	-0.0675 ± 0.0064	-0.089 ± 0.03	-0.124 ± 0.0014	-0.126 ± 0.067	0.0055 ± 0.025	-0.007 ± 0.042	0.009 ± 0.04	-0.117 ± 0.017	-0.169 ± 0.014	0.014 ± 0.0014	0.003 ± 0.014	0.0015 ± 0.03
BF4T:CD54/ICAM-1	0.009 ± 0.011	0.004 ± 0.017	-0.0155 ± 0.0035	0.0125 ± 0.016	-0.002 ± 0.023	-0.03 ± 0.0014	-0.0815 ± 0.0064	-0.0195 ± 0.005	-0.0205 ± 0.005	-0.0075 ± 0.013	-0.001 ± 0.025	-0.007 ± 0.017	0.0065 ± 0.029	-0.029 ± 0.0014	-0.06 ± 0.045	-0.0075 ± 0.0064	-0.003 ± 0.014	-0.02 ± 0.0071
BF4T:CD90	-0.004 ± 0.0014	-0.004	-0.027 ± 0.0085	-0.0205 ± 0.013	-0.005 ± 0.0042	-0.03 ± 0.0014	-0.071 ± 0.0085	-0.0205 ± 0.011	-0.022 ± 0.0042	-0.0235 ± 0.019	0.005 ± 0.0042	-0.0075 ± 0.0035	-0.006	-0.0275 ± 0.012	-0.0585 ± 0.016	-0.009 ± 0.018	-0.0015 ± 0.013	-0.0135 ± 0.012
BF4T:CD106/VCAM-1	0.017 ± 0.024	0.001 ± 0.0042	-0.0765 ± 0.0064	-0.094 ± 0.0099	0.0765 ± 0.0092	-0.018 ± 0.037	-0.0835 ± 0.043	-0.0755 ± 0.0064	-0.0945 ± 0.005	-0.047 ± 0.067	-0.01 ± 0.0014	-0.0095 ± 0.016	0.002 ± 0.048	-0.052 ± 0.0057	-0.1125 ± 0.00071	-0.0035 ± 0.016	0.0155 ± 0.013	-0.037 ± 0.031
BF4T:CXCL8/IL-8	0.015 ± 0.014	0.006 ± 0.0014	0.049 ± 0.0014	0.121 ± 0.02	-0.0155 ± 0.026	-0.0265 ± 0.026	-0.0245 ± 0.03	-0.0135 ± 0.022	-0.022 ± 0.0099	0.0345 ± 0.05	0.0435 ± 0.0021	-0.0005 ± 0.021	0.013 ± 0.05	0.003 ± 0.0057	0.0405 ± 0.013	0.0095 ± 0.012	-0.0015 ± 0.023	0.021 ± 0.011
BF4T:IL-1alpha	0.0205 ± 0.025	0.0055 ± 0.005	0.01 ± 0.0014	0.0205 ± 0.016	0.0095 ± 0.012	-0.002 ± 0.025	0.003 ± 0.051	-0.009 ± 0.0057	-0.003 ± 0.0085	-0.0065 ± 0.035	-0.003 ± 0.0014	-0.016 ± 0.0042	0.002 ± 0.0014	0.0095 ± 0.012	-0.0455 ± 0.022	0.017 ± 0.021	0.0035 ± 0.018	0.0315 ± 0.0035
BF4T:Keratin 8/18	0.009 ± 0.025	-0.012 ± 0.013	-0.027 ± 0.0014	0.0125 ± 0.015	-0.0025 ± 0.012	-0.005 ± 0.0057	-0.0335 ± 0.015	-0.012 ± 0.0085	-0.012 ± 0.0028	0.007 ± 0.014	0.002 ± 0.023	-0.004 ± 0.021	0.004 ± 0.037	-0.0085 ± 0.005	-0.069 ± 0.023	0.0085 ± 0.005	0.0275 ± 0.052	0.002 ± 0.016
BF4T:MMP-1	0.0055 ± 0.0078	-0.0055 ± 0.005	-0.019 ± 0.0014	0.0225 ± 0.0092	-0.0025 ± 0.016	0.0005 ± 0.018	0.0065 ± 0.046	-0.006 ± 0.018	0 ± 0.0042	0.0125 ± 0.021	0.0065 ± 0.011	-0.0025 ± 0.015	0.007 ± 0.0028	0.003 ± 0.016	0.0075 ± 0.019	-0.0045 ± 0.03	-0.0005 ± 0.018	0.0155 ± 0.0035
BF4T:MMP-3	0.047 ± 0.045	-0.015 ± 0.014	0.0025 ± 0.046	0.117 ± 0.028	0.0035 ± 0.016	0.012 ± 0.0028	-0.011 ± 0.013	-0.0165 ± 0.00071	-0.0105 ± 0.0064	0.0205 ± 0.037	0.0055 ± 0.033	-0.0055 ± 0.035	0.0025 ± 0.022	0.004 ± 0.024	0.0845 ± 0.028	0.0105 ± 0.029	-0.012 ± 0.047	-0.0025 ± 0.052
